This series is described as follows: Solubility in solvents and monomer. The class given is physicochemical.

“Also recorded” adds a separate entry of the source.

On to `C=C(C)C(=O)NCCCNC(=O)c1ccc(C(=O)c2ccccc2)cc1` [APMA-BBC, N-[3-(4-benzoylbenzamido)propyl]methacrylamide], for which the “Solubility in N-vinylpyrrolidone” value is listed as “readily soluble; also recorded: Freely soluble” and the “Solubility in THF” value is “Freely soluble”.
Turning to `C=C(C)C(=O)OCCOC(=O)c1ccc(C(=O)c2ccccc2)cc1` [HEMA-BBA, 1-(4-benzoylbenzoic acid)-2-methaacrylic acid-glycolester], the “Solubility in N-vinylpyrrolidone” value is “only slowly soluble” and the “Solubility in THF” value was “moderately soluble”. For the same compound, for the setting “acetone”, the Solubility in acetone result is “insoluble”. Also, where the note is “chloroform”, the Solubility in chloroform entry is “highly soluble”. The “Solubility in deionized water” value (deionized water) was “insoluble”. Besides, the Solubility in ethanol result (ethanol) is given as “insoluble”. Further, the “Solubility in ethyl acetate” value (ethyl acetate) was “insoluble”. Besides, the Solubility in n-heptane result (n-heptane) is reported as “slightly to sparingly soluble”.

For the origin of these results see patent EP4524128A1, “BENZOPHENONE CROSSLINKERS” (Hemoteq AG, priority 2023, dated 2025).
